Measured values reported in PubChem BioAssay (NCI).
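Compound exposure: 48 hours, 5 concentrations, 96-well plates. At the GI50, growth is halved. TGI: total growth inhibition.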

How the values were obtained:
Assay in all cases: DTP human tumour cell line panel, 48 h
UACC-62 melanoma = tested on: UACC-62 melanoma
HCT-116 colon = tested on: HCT-116 colon
NCI-H23 lung = tested on: NCI-H23 lung
MCF7 breast = tested on: MCF7 breast
HS 578T breast = tested on: HS 578T breast
SF-295 CNS = tested on: SF-295 CNS
SF-539 CNS = tested on: SF-539 CNS
NCI-H460 lung = tested on: NCI-H460 lung
SW-620 colon = tested on: SW-620 colon

| Structure (SMILES) | TGI (UACC-62 melanoma) [µM] | TGI (HCT-116 colon) [µM] | TGI (NCI-H23 lung) [µM] | TGI (MCF7 breast) [µM] | TGI (HS 578T breast) [µM] | TGI (SF-295 CNS) [µM] | GI50 (UACC-62 melanoma) [µM] | GI50 (SF-539 CNS) [µM] | TGI (SF-539 CNS) [µM] | GI50 (HCT-116 colon) [µM] | GI50 (MCF7 breast) [µM] | GI50 (HS 578T breast) [µM] | TGI (NCI-H460 lung) [µM] | TGI (SW-620 colon) [µM] |
| --- | --- | --- | --- | --- | --- | --- | --- | --- | --- | --- | --- | --- | --- | --- |
| FC1(F)SC2CCCCCCCCCCC2C1(F)F (configuration not stated) | > 100 | 37.1 | 80.1 | 44.2 | > 100 | > 100 | – | – | – | – | – | – | – | – |
| COc1cc(/C=C2\CCCC3=C2N=C2SC=NN2C3c2cc(OC)c(OC)c(OC)c2)cc(OC)c1OC (configuration not stated) | 3.66 | 3.41 | – | > 100 | > 100 | – | 1.68 | 2.9 | > 100 | 1.76 | 3.82 | 4.85 | – | – |
| NC(=O)NC(=O)c1cccc(C(=O)NC(N)=O)n1 | > 100 | > 100 | > 100 | > 100 | – | > 100 | – | – | > 100 | – | – | – | > 100 | > 100 |
| CCOC(=O)C(/C=N/C(N)=S)=C(/O)c1ccccc1 | > 100 | > 100 | > 100 | > 100 | – | > 100 | – | – | > 100 | – | – | – | > 100 | > 100 |
| CCOC(=O)CCNC(=O)c1cc(C)cc2c1Oc1c(cc(C)cc1C(=O)NCCC(=O)OCC)S2 | > 100 | > 100 | > 100 | > 100 | > 100 | > 100 | – | – | > 100 | – | – | – | – | > 100 |
| Cc1cc(NS(=O)(=O)c2ccc(N=Nc3c(Nc4ccccc4)nn(-c4ccc(S(=O)(=O)Nc5ccncn5)cc4)c3C)cc2)no1 | > 100 | > 100 | > 100 | > 100 | – | > 100 | – | – | > 100 | – | – | – | – | – |
| COC(=O)Cc1c(-c2c(CC(=O)OC)c3ccccc3n2C2OC(COC3OC(COC(C)=O)C(OC(C)=O)C(OC(C)=O)C3OC(C)=O)C(O)C(O)C2O)[nH]c2ccccc12 (configuration not stated) | > 100 | > 100 | > 100 | > 100 | – | > 100 | – | – | > 100 | – | – | – | > 100 | > 100 |
| O=C(O)Cc1ccc(-n2nnc3c(=O)[nH][nH]c(=O)c32)cc1 | – | > 100 | > 100 | > 100 | – | > 100 | – | – | – | – | – | – | > 100 | – |
| O=C(Nc1ccccn1)c1cc2c(cc1Cl)Sc1nccn1S2(=O)=O | > 100 | > 100 | 82.6 | > 100 | > 100 | > 100 | – | – | – | – | – | – | > 100 | > 100 |
| COc1cc(CNC(=O)CCCCCCCCCCSC#N)ccc1O | – | 28.1 | 43 | 34.9 | 40.9 | 37.4 | – | – | 37.1 | – | – | – | 38.2 | 36.4 |
| COc1ccccc1N1C(=O)/C(=C\c2ccccc2)SC1c1cc(OC)c(OC)c(OC)c1 (configuration not stated) | > 100 | > 100 | > 100 | > 100 | > 100 | > 100 | – | – | – | – | – | – | – | – |
| O=c1ccc2c(Cl)sc(Cl)c2[nH]1 | > 100 | > 100 | > 100 | > 100 | > 100 | > 100 | – | – | – | – | – | – | > 100 | > 100 |
| CC(=O)Nc1ccc2cc3c(nc2n1)c1cccnc1n3S(=O)(=O)c1ccccc1 | > 100 | > 100 | > 100 | > 100 | > 100 | > 100 | – | – | – | – | – | – | > 100 | > 100 |
